ChEMBL document CHEMBL1201862, “PubChem BioAssay data set” (2004)
Calls of active or inactive are those of the source.

Key:
Beta Lactamase = Beta Lactamase (Pseudomonas aeruginosa, UniProt Q932Y6); assay: beta-lactamase reporter inhibitor potency, dose response, artefact control for NOD2-RIPK2 interaction inhibitor project, BLA reporter cells, FRET fluorescence (AID 651552); assay type: functional, cell-based
[1] = HepG2 cell cytotoxicity, dose response, cytotoxicity control for non-replicating M. tuberculosis project (AID 489018); assay type: functional; details: Mycobacterium tuberculosis
Coagulation factor XII = biological target: T1, Coagulation factor XII (Homo sapiens, UniProt P00748); assay type: functional;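 also: activated factor XIIa alpha cleaving a fluorogenic AMC peptide substrate; inhibitor potency from loss of enzyme activity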
T1 sequence (P00748 whole entry): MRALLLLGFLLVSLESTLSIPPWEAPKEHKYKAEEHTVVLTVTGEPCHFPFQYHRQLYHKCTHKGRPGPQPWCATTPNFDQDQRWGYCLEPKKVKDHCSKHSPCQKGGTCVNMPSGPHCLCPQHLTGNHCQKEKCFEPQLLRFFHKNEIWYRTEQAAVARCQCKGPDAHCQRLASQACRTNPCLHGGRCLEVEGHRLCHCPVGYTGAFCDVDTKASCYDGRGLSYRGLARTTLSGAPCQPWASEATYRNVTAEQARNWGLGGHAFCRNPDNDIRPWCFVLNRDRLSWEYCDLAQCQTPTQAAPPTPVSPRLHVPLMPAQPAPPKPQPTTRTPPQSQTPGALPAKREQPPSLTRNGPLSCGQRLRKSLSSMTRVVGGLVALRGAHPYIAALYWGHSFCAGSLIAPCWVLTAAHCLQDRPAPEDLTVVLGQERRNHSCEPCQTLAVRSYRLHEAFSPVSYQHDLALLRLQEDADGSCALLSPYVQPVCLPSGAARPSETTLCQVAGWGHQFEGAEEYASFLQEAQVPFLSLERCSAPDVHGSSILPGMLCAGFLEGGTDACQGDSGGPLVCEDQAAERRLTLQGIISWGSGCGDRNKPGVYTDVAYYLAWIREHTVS

Streptokinase A = biological target: T2, Streptokinase A (Streptococcus pyogenes serotype M1, UniProt P10520); assay: S. pyogenes streptokinase expression inhibitors, potency, dose response, plasminogen activation absorbance, OD405 (AID 1914); assay type: functional, Streptococcus pyogenes M1 GAS;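 also: secreted streptokinase activity via plasminogen activation per viability signal from cell pellet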
T2 sequence (P10520 whole entry): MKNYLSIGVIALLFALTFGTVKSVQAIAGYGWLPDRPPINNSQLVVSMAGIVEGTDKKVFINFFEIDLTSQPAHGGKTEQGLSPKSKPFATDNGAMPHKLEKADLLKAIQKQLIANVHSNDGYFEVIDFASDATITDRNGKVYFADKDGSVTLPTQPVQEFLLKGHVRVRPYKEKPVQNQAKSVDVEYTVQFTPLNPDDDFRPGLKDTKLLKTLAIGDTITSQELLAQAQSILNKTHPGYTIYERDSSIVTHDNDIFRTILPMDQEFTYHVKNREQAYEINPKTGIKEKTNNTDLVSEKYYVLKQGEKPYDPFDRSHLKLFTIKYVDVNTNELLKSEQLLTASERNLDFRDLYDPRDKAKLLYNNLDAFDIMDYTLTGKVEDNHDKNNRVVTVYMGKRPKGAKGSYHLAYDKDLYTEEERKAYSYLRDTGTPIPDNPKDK

[2] = Luminescence Cell-Based Dose Response HTS to Identify Inhibitors of 5'UTR Stem-Loop Driven Prion Protein mRNA Translation in H4 Neuroglioblastoma Cells. [Related pubchem assays: 1827 (Project Summary), 1813 (Primary HTS)]; assay type: functional
[3] = growth suppression of PTEN-null colon cells, dose response, cell-based, HCT116 PTEN knockout (AID 1047); assay type: functional;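 also: HCT116 colon tumor cells with PTEN knocked out; cells exposed to compound for 60 hours before readout; potency for loss of cell viability measured by luminescence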
[4] = system: Streptococcus sp. 'group A'; assay: growth inhibition of control SK(-) GAS strain, dose response, counter-screen for streptokinase expression inhibitor project, luminescence, kanamycin, BacTiterGlo, confirmation (AID 1900); assay type: functional, organism-based
[5] = biological target: ALK tyrosine kinase receptor (Homo sapiens, UniProt Q9UM73); assay type: functional;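 also: ALK tested as one member of a kinase panel screen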
[6] = biological target: Mitogen-activated protein kinase 10 (Homo sapiens, UniProt P53779); assay: Navigating the Kinome. Panel member name: MAPK10; assay type: functional
[7] = biological target: Serine/threonine-protein kinase Chk2 (Homo sapiens, UniProt O96017); assay type: functional;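 also: CHEK2 entry within a kinome-wide screening panel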
[8] = biological target: Inhibitor of nuclear factor kappa-B kinase subunit epsilon (Homo sapiens, UniProt Q14164); assay: Navigating the Kinome. Panel member name: IKBKE; assay type: functional
[9] = biological target: Interleukin-1 receptor-associated kinase 4 (Homo sapiens, UniProt Q9NWZ3); assay type: functional
Aurora kinase B = Aurora kinase B (Homo sapiens, UniProt Q96GD4); assay type: functional
[10] = biological target: Mitogen-activated protein kinase kinase kinase kinase 2 (Homo sapiens, UniProt Q12851); assay type: functional;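 also: measured as one member of a kinome-wide kinase panel, with MAP4K2 as the panel entry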
[11] = biological target: Tyrosine-protein kinase BTK (Homo sapiens, UniProt Q06187); assay type: functional
[12] = biological target: Mitogen-activated protein kinase 9 (Homo sapiens, UniProt P45984); assay type: functional;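 also: value from a kinome panel profiling assay, MAPK9 panel entry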
[13] = biological target: G protein-coupled receptor kinase 5 (Homo sapiens, UniProt P34947); assay: Navigating the Kinome. Panel member name: GPRK5; assay type: functional
[14] = biological target: Vascular endothelial growth factor receptor 3 (Homo sapiens, UniProt P35916); assay type: functional;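 also: value from a kinome-wide profiling panel, with FLT4 as the panel member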
[15] = biological target: Interleukin-1 receptor-associated kinase 1 (Homo sapiens, UniProt P51617); assay type: functional;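 also: IRAK1 tested as one member of a kinome panel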
[16] = biological target: T3, Mannose-6-phosphate isomerase (Homo sapiens, UniProt P34949); assay: human PMI inhibitors, high substrate, primary screen, biochemical, fluorescence intensity, high mannose 6-phosphate (AID 1220)
T3 sequence (P34949 whole entry): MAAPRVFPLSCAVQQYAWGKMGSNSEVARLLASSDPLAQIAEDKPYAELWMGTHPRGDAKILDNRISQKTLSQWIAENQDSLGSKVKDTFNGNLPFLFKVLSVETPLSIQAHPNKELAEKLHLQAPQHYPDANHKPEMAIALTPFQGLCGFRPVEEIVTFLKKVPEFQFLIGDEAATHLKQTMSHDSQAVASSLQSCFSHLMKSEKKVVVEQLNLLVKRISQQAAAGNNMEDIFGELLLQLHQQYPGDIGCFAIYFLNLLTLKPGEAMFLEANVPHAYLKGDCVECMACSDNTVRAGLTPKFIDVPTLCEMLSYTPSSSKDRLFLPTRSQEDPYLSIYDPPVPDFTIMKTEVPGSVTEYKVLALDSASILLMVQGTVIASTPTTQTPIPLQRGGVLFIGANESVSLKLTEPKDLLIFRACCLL

Beta-galactosidase = Beta-galactosidase (Escherichia coli, UniProt Q8VNN2); assay: beta-galactosidase enzyme inhibitors and activators, dose response, artefact control for CCR6 antagonist project, biochemical, E. coli enzyme, set 3 (AID 504712); assay type: functional
[17] = biological target: Kappa-type opioid receptor (Homo sapiens, UniProt P41145); assay type: functional
Focal adhesion kinase 1 = Focal adhesion kinase 1 (Homo sapiens, UniProt Q05397); assay type: functional;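 also: measured as one member of a kinome panel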
[18] = biological target: Ribosomal protein S6 kinase alpha-5 (Homo sapiens, UniProt O75582); assay type: functional

Sequence of ALK tyrosine kinase receptor (Q9UM73 whole entry): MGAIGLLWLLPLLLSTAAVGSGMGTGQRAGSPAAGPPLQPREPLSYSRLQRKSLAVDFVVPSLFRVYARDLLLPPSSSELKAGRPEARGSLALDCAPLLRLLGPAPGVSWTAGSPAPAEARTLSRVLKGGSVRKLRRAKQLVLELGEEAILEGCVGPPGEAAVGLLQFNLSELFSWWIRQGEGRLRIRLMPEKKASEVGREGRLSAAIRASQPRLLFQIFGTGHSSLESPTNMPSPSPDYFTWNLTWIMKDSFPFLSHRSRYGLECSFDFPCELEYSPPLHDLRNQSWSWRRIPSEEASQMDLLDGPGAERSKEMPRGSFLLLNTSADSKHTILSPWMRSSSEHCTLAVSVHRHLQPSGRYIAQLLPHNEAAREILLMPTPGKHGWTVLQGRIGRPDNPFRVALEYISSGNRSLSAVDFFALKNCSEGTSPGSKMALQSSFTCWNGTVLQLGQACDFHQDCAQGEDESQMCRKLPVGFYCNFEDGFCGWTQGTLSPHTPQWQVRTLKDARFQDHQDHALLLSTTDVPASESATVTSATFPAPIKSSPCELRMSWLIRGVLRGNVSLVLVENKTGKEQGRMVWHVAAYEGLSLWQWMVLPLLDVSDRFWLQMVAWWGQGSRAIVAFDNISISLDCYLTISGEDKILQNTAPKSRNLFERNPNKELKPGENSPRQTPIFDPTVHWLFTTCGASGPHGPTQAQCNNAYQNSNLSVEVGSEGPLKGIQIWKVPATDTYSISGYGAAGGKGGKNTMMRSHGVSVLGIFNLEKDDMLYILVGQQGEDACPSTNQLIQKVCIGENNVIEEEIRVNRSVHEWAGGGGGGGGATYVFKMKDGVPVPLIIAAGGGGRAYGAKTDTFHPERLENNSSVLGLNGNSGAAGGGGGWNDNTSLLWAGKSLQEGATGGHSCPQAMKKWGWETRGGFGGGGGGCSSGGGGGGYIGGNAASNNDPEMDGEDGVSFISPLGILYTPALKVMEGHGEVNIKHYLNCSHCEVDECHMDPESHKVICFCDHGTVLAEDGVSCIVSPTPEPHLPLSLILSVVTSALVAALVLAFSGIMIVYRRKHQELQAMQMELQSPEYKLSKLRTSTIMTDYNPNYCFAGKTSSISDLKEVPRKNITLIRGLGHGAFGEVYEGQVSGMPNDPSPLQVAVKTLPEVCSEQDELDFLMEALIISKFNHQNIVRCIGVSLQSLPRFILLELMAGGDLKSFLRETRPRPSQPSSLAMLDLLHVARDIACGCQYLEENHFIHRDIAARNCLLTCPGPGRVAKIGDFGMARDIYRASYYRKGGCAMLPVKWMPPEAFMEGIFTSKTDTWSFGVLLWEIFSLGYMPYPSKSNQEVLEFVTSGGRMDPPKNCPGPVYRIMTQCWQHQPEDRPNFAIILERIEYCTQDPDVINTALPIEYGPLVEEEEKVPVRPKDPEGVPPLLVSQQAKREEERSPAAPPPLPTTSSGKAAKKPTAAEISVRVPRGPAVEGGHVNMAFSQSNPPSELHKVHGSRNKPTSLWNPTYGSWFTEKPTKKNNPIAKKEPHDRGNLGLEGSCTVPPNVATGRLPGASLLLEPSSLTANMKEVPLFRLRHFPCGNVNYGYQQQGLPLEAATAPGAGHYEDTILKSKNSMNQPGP
Sequence of Interleukin-1 receptor-associated kinase 4 (Q9NWZ3 whole entry): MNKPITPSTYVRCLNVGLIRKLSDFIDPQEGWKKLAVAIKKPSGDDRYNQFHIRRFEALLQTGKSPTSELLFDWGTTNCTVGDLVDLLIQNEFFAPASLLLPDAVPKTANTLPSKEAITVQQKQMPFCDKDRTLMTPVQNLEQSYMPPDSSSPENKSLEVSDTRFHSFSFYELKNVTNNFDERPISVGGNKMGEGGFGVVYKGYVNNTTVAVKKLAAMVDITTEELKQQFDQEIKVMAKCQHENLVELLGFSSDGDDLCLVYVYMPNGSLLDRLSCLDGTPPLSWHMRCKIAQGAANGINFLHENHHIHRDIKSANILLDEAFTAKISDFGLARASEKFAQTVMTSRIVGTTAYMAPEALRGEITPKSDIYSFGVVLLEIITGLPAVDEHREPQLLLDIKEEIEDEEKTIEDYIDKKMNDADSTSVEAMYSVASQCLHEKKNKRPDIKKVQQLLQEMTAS
Sequence of Focal adhesion kinase 1 (Q05397 whole entry): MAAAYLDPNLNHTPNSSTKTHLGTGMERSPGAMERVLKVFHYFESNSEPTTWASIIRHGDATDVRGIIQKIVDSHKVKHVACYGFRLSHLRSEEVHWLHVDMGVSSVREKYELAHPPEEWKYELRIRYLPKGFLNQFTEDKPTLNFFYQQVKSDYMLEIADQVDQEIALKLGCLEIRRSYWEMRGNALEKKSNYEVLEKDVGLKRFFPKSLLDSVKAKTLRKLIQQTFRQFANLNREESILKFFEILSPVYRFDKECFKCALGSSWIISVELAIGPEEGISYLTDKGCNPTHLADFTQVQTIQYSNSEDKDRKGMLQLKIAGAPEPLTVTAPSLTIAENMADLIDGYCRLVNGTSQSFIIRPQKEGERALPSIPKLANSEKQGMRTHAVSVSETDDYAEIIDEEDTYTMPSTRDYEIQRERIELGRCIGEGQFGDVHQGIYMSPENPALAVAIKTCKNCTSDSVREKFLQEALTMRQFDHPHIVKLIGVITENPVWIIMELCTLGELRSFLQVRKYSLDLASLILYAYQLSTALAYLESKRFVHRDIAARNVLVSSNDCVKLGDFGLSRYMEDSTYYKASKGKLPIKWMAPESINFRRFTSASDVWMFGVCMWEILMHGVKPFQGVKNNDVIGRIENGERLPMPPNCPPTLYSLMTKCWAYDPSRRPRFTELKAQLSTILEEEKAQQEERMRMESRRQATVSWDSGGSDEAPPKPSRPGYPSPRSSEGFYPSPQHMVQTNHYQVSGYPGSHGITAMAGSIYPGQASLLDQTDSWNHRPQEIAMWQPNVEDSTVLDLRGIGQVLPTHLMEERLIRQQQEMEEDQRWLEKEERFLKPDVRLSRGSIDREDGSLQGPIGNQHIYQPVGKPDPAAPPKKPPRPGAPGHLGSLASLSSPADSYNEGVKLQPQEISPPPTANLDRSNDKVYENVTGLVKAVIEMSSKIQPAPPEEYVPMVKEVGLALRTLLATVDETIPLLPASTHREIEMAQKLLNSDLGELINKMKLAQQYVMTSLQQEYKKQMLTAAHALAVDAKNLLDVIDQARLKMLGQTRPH
Sequence of Mitogen-activated protein kinase 10 (P53779 whole entry): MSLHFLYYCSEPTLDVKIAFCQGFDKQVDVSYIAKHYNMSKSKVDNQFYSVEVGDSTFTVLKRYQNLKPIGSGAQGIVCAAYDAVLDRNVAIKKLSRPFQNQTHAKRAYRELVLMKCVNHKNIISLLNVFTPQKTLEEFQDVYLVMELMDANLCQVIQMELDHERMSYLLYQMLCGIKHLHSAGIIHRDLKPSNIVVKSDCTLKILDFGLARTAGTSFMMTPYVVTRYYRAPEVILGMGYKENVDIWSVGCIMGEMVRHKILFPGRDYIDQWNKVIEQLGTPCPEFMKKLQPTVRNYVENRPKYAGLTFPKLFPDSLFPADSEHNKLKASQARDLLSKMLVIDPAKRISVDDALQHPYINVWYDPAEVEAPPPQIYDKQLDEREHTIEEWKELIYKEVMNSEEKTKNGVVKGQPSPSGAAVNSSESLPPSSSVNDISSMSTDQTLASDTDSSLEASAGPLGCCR
Sequence of Mitogen-activated protein kinase kinase kinase kinase 2 (Q12851 whole entry): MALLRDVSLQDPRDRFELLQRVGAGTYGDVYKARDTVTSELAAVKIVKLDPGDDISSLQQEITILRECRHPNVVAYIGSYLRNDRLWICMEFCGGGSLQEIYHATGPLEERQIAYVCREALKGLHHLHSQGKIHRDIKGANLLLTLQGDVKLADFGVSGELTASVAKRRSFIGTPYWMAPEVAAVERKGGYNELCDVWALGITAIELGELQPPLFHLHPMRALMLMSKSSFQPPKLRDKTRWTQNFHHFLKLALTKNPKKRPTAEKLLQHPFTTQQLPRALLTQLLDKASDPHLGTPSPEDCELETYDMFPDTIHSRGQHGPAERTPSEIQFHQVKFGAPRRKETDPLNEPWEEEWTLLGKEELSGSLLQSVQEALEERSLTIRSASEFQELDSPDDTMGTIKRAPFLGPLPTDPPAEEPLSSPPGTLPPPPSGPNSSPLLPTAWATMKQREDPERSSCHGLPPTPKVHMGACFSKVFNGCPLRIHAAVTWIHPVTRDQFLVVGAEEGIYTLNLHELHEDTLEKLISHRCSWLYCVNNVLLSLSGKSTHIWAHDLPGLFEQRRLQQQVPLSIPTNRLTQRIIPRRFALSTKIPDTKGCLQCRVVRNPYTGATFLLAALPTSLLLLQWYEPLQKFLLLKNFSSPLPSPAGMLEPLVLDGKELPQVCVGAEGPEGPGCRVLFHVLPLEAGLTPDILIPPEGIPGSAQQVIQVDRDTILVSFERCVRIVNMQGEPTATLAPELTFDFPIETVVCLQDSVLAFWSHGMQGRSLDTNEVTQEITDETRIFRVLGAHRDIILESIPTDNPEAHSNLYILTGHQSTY
Sequence of Tyrosine-protein kinase BTK (Q06187 whole entry): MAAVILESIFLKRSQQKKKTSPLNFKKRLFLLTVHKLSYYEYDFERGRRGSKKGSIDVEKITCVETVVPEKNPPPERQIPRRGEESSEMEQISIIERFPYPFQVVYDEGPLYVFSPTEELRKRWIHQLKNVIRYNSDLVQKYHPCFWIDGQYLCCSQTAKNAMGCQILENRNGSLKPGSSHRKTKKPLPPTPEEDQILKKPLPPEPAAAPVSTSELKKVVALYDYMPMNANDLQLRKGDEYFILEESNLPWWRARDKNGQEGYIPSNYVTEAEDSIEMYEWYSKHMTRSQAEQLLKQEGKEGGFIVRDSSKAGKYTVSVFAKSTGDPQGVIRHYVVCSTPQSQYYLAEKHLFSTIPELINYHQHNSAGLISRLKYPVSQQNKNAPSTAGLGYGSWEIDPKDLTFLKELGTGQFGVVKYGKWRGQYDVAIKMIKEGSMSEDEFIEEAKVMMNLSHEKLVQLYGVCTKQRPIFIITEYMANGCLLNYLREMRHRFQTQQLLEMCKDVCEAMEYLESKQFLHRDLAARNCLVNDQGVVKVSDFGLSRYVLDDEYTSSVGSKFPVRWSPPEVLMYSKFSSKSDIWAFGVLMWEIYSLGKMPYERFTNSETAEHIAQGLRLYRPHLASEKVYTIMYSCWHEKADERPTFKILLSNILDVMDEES

## COC(=O)CCS(=O)(=O)c1nc(-c2ccccc2)cc(C(F)(F)F)n1
Beta Lactamase
  IC50: 16.4 µM (inactive)
[1]
  CC50: 19.4 µM (active)

## O=C(O)c1ccc(NC2=C(Cl)C(=O)c3ccccc3C2=O)cc1
Coagulation factor XII
  IC50: > 50 µM (inactive)

## O=C(O)c1ccc2c3c(ncnc13)-c1ccccc1C2=O
Streptokinase A
  EC50: 16 µM (active)
[2]
  EC50: 1.32 µM (active)
[3]
  EC50: 16.1 µM (active)
[4]
  EC50: 6.43 µM (active)

## Cc1ccc2nccc(NC(=O)Nc3cccc(C(F)(F)F)n3)c2c1
[5]
  Ki: > 3.98 µM (inactive)
[6]
  Ki: > 3.16 µM (inactive)
[7]
  Ki: > 1.58 µM (inactive)
[8]
  Ki: > 3.16 µM (inactive)
[9]
  Ki: > 10 µM (inactive)
Aurora kinase B
  Ki: 0.251 µM (active)
[10]
  Ki: > 6.31 µM (inactive)
[11]
  Ki: > 1.26 µM (inactive)
[12]
  Ki: > 3.98 µM (inactive)
[13]
  Ki: > 3.98 µM (inactive)
[14]
  Ki: 1 µM (active)
[15]
  Ki: > 7.94 µM (inactive)

## Cc1c(/N=C2\C=CC(=O)c3ccccc32)c(=O)n(-c2ccccc2)n1C
[16]
  IC50: 46.4 µM (active)
Beta-galactosidase
  IC50: > 66.6 µM (inactive)
[17]
  IC50: 12.1 µM (active)

## COc1cc2c(cc1F)C(c1ccccc1Cl)=Nc1c(n[nH]c1C)N2 [RG-1530]
Focal adhesion kinase 1
  Ki: 0.0126 µM (active)
[18]
  Ki: > 2 µM (inactive)
